Assay [1] deals with Beta-lactamase CTX-M-27 (Escherichia coli) (UniProt Q840M4). The experiment in a line: Inhibition of beta-lactamase CTX-M-27 in Escherichia coli (EC113) ST 131 assessed as potentiation of cefazolin-induced antibacterial activity by measuring cefazolin MIC at 10 ug/ml incubated for 18 hrs by CLSI based broth microtitre dilution method (Rvb >16 ug/ml).
Assay [2] shares this target. In words: Inhibition of beta-lactamase CTX-M-27 in Escherichia coli (EC113) ST 131 assessed as potentiation of cefepime-induced antibacterial activity by measuring cefepime MIC at 10 ug/ml incubated for 18 hrs by CLSI based broth microtitre dilution method (Rvb >32 ug/ml).
Assay [3] shares this target. The experiment in a line: Inhibition of beta-lactamase CTX-M-27 in Escherichia coli (EC113) ST 131 assessed as potentiation of ampicillin-induced antibacterial activity by measuring ampicillin MIC at 10 ug/ml incubated for 18 hrs by CLSI based broth microtitre dilution method (Rvb >16 ug/ml).
The target is the same in assay [4]. In words: Inhibition of beta-lactamase CTX-M-27 in Escherichia coli (EC113) ST 131 assessed as potentiation of piperacillin-induced antibacterial activity by measuring piperacillin MIC at 10 ug/ml incubated for 18 hrs by CLSI based broth microtitre dilution method (Rvb >64 ug/ml).
Assay [5] shares this target. In words: Inhibition of beta-lactamase CTX-M-27 in Escherichia coli (EC113) ST 131 assessed as potentiation of ceftazidime-induced antibacterial activity by measuring ceftazidime MIC at 10 ug/ml incubated for 18 hrs by CLSI based broth microtitre dilution method (reference value: 8 ug/ml).
The target is the same in assay [6]. In words: Inhibition of beta-lactamase CTX-M-27 in Escherichia coli (EC113) ST 131 assessed as potentiation of ceftriaxone-induced antibacterial activity by measuring ceftriaxone MIC at 10 ug/ml incubated for 18 hrs by CLSI based broth microtitre dilution method (Rvb >32 ug/ml).
Assay [7] has the same target. The experiment in a line: Inhibition of beta-lactamase CTX-M-27 in Escherichia coli (EC113) ST 131 assessed as potentiation of aztreonam-induced antibacterial activity by measuring aztreonam MIC at 10 ug/ml incubated for 18 hrs by CLSI based broth microtitre dilution method (Rvb >16 ug/ml).
For assay [8], the system named is MexAB/OprM (Pseudomonas aeruginosa (strain ATCC 15692 / DSM 22644 / CIP 104116 / JCM14847 / LMG 12228 / 1C / PRS 101 / PAO1)), P52477+P52002+Q51487 [UNDEFINED MUTATION]. In words: Inhibition of MexAB/OprM nalB mutant in Pseudomonas aeruginosa PAO1 K1455 assessed as potentiation of novobiocin-induced antibacterial activity by measuring novobiocin MIC at 20 ug/ml incubated for 18 hrs by CLSI based broth microtitre dilution method (Rvb > 2048 ug/ml).

Assay [9] shares this test system. In words: Inhibition of MexAB/OprM nalB mutant in Pseudomonas aeruginosa PAO1 K1455 assessed as potentiation of levofloxacin-induced antibacterial activity by measuring levofloxacin MIC at 20 ug/ml incubated for 18 hrs by CLSI based broth microtitre dilution method (reference value: 2 ug/ml).
Assay [10] shares this test system. In words: Inhibition of MexAB/OprM nalB mutant in Pseudomonas aeruginosa PAO1 K1455 assessed as potentiation of erythromycin-induced antibacterial activity by measuring erythromycin MIC at 20 ug/ml incubated for 18 hrs by CLSI based broth microtitre dilution method (reference value: 256 ug/ml).
Assay [11] shares this test system. The experiment in a line: Inhibition of MexAB/OprM nalB mutant in Pseudomonas aeruginosa PAO1 K1455 assessed as potentiation of tetracycline-induced antibacterial activity by measuring tetracycline MIC at 20 ug/ml incubated for 18 hrs by CLSI based broth microtitre dilution method (reference value: 64 ug/ml).
For assay [12] the test system is unchanged. The experiment in a line: Inhibition of MexAB/OprM nalB mutant in Pseudomonas aeruginosa PAO1 K1455 assessed as potentiation of rifampin-induced antibacterial activity by […] at 20 ug/ml incubated for 18 hrs by CLSI based broth microtitre dilution method (reference value: 16 ug/ml).
For assay [13] the test system is unchanged. The experiment in a line: Inhibition of MexAB/OprM nalB mutant in Pseudomonas aeruginosa PAO1 K1455 assessed as potentiation of cefotaxime-induced antibacterial activity by measuring cefotaxime MIC at 20 ug/ml incubated for 18 hrs by CLSI based broth microtitre dilution method (reference value: 64 ug/ml).
Assay [14] concerns Klebsiella aerogenes. The experiment in a line: Inhibition of AcrAB-TolC in Enterobacter aerogenes EA3 assessed as potentiation of tetracycline-induced antibacterial activity by measuring tetracycline MIC at 0.2 mM incubated for 18 hrs (reference value: 8 ug/ml).
Assay [15] concerns Klebsiella aerogenes. The experiment in a line: Inhibition of AcrAB-TolC in Enterobacter aerogenes EA3 assessed as potentiation of norfloxacin-induced antibacterial activity by measuring norfloxacin MIC at 0.2 mM incubated for 18 hrs (reference value: 256 ug/ml).
Assay [16] relates to Klebsiella aerogenes. In words: Inhibition of AcrAB-TolC in Enterobacter aerogenes EA3 assessed as potentiation of chloramphenicol-induced antibacterial activity by measuring chloramphenicol MIC at 0.2 mM incubated for 18 hrs (reference value: 512 ug/ml).
Assay [17] has as its target Metallo-beta-lactamase type 2 (Klebsiella pneumoniae) (UniProt C7C422). The experiment in a line: Inhibition of beta-lactamase NDM-1 in Klebsiella pneumoniae N11-2218 assessed as potentiation of meropenem-induced antibacterial activity by measuring meropenem MIC at 8 ug/ml (Rvb =32 ug/ml).
For the next assay, the system named is Klebsiella pneumoniae. The experiment in a line: Potentiation of meropenem-induced antibacterial activity against Klebsiella pneumoniae N11-2218 harboring NDM1 infected in CD1 mouse assessed as mouse survival at 30 mg/kg, sc administered 30 mins post infection and measured 5 days post infection (reference value: 0%). In kind it is functional. The settings on record: N11-2218, sc.

Assay [18] deals with T1, MexAB/OprM (Pseudomonas aeruginosa (strain ATCC 15692 / DSM 22644 / CIP 104116 / JCM14847 / LMG 12228 / 1C / PRS 101 / PAO1)) (UniProt P52477+P52002+Q51487). In words: Inhibition of MexAB/OprM in Pseudomonas aeruginosa PAO1 assessed as potentiation of trimethoprim-induced antibacterial activity by measuring trimethoprim MIC at 128 ug/ml incubated for 18 hrs (reference value: 128 ug/ml).

Assay [19] has as its target T1, MexAB/OprM (Pseudomonas aeruginosa (strain ATCC 15692 / DSM 22644 / CIP 104116 / JCM14847 / LMG 12228 / 1C / PRS 101 / PAO1)). The experiment in a line: Inhibition of MexAB/OprM in Pseudomonas aeruginosa PAO1 assessed as potentiation of carbenicillin-induced antibacterial activity by measuring carbenicillin MIC at 128 ug/ml incubated for 18 hrs (reference value: 64 ug/ml).

For assay [20] the target is unchanged. In words: Inhibition of MexAB/OprM in Pseudomonas aeruginosa PAO1 assessed as potentiation of novobiocin-induced antibacterial activity by measuring novobiocin MIC at 128 ug/ml incubated for 18 hrs (reference value: 512 ug/ml).
For assay [21] the target is unchanged. In words: Inhibition of MexAB/OprM in Pseudomonas aeruginosa PAO1 assessed as potentiation of chloramphenicol-induced antibacterial activity by measuring chloramphenicol MIC at 128 ug/ml incubated for 18 hrs (reference value: 64 ug/ml).
Assay [22] shares this target. In words: Inhibition of MexAB/OprM in Pseudomonas aeruginosa PAO1 assessed as potentiation of ciprofloxacin-induced antibacterial activity by measuring ciprofloxacin MIC at 128 ug/ml incubated for 18 hrs (reference value: 1 ug/ml).
Assay [23] has the same target. In words: Inhibition of MexAB/OprM in Pseudomonas aeruginosa PAO1 assessed as potentiation of tetracycline-induced antibacterial activity by measuring tetracycline MIC at 128 ug/ml incubated for 18 hrs (reference value: 8 ug/ml).

The record followed here is ChEMBL document CHEMBL4376806, “Antibiotic Adjuvants: Make Antibiotics Great Again!” (2019).

With `NCc1ccc(C(=O)N[C@H]2Cc3cccc(C(=O)O)c3O[B-]2(O)O)cc1`, the MIC in assay [1] was 4 µg/mL; in assay [2], < 4 µg/mL; in assay [3], < 8 µg/mL; in [4], < 16 µg/mL; in assay [5] it was < 1 µg/mL; in assay [6], < 0.5 µg/mL. The MIC in [7] was < 1 µg/mL.

`C[C@H]1[C@H]2CC[C@H]3[C@@H]4CC=C5C[C@@H](N(C)C)CC[C@]5(C)[C@H]4CC[C@]23CN1C`: the MIC in assay [8] amounted to 256 µg/mL; in [9], 0.25 µg/mL; in assay [10], 32 µg/mL; in assay [11], 8 µg/mL; in [12], 2 µg/mL; in assay [13], 8 µg/mL.

Consider `Cc1c([N+](=O)[O-])ccc2c(NCCN3CCCCC3)ccnc12`, for which the values for the MIC with Klebsiella aerogenes [14], with Klebsiella aerogenes [15] and in the assay with Klebsiella aerogenes [16] were 0.5 µg/mL, 16 µg/mL and 2 µg/mL, respectively.

`N[C@H](CN[C@H](CN[C@@H](CC(=O)O)C(=O)O)C(=O)O)C(=O)O`: in assay [17], the MIC was 1 µg/mL. Besides, the survival at 30 mg/kg with Klebsiella pneumoniae was found to be 95%.

Turning to `O=C(O[C@@H]1Cc2c(O)cc(O)cc2O[C@@H]1c1cc(O)c(O)c(O)c1)c1cc(O)c(O)c(O)c1`, the MIC stood at 32 µg/mL in assay [18]; 64 µg/mL in [19]; 128 µg/mL in assay [20]; 16 µg/mL in assay [21]; 0.5 µg/mL in [22]; 2 µg/mL in assay [23].
